Results taken from US12540128B2, “Substituted pyridazinones as herbicides” (SYNGENTA CROP PROTECTION AG, priority 2019, dated 2026).

What was measured:
Type in all cases: in vivo
Details in all cases: 250 g/ha, after 13 days
[1] = test system: Echinochloa crus-galli (ECHCG); assay: B3 Pre-Emergence Efficacy Test 1
Method: (§1) Seeds of a variety of test species were sown in standard soil in pots: Solanum nigrum (SOLNI), Amaranthus retoflexus (AMARE), Setaria faberi (SETFA), Echinochloa crus-galli (ECHCG), Ipomoea hederacea (IPOHE), Lolium perenne (LOLPE). After cultivation for one day (pre-emergence) under controlled conditions in a glasshouse (at 24/16° C., day/night; 14 hours light; 65% humidity), the plants were sprayed with an aqueous spray solution derived from the formulation of the technical active ingredient in acetone/water (50:50) solution containing 0.5% Tween 20 (polyoxyethelyene sorbitan monolaurate, CAS RN 9005-64-5). Compounds are applied at 250 g/ha. The test plants were then grown in a glasshouse under controlled conditions (at 24/16° C., day/night; 14 hours light; 65% humidity) and watered twice daily. After 13 days, the test is evaluated for the percentage damage caused to the plant. The biological activities are assessed on a five point scale (5=80-100%; 4=60-79%; 3=40-59%; 2=20-39%; 1=0-19%). A blank value in the table is indicative that the compound was not tested on that species.

Lolium perenne (LOLPE) [2] = assay: B3 Pre-Emergence Efficacy Test 1
Method: as §1

Setaria faberi (SETFA) [3] = assay: B3 Pre-Emergence Efficacy Test 1
Method: as §1

[4] = test system: Ipomoea hederacea (IPOHE); assay: B3 Pre-Emergence Efficacy Test 1
Method: as §1

Solanum nigrum (SOLNI) [5] = assay: B3 Pre-Emergence Efficacy Test 1
Method: as §1

[6] = test system: Amaranthus retoflexus (AMARE); assay: B3 Pre-Emergence Efficacy Test 1
Method: as §1

Lolium perenne (LOLPE) [7] = assay: B1 Post-Emergence Efficacy Test 1
Method: (§2) Seeds of a variety of test species are sown in standard soil in pots:— Solanum nigrum (SOLNI), Amaranthus retoflexus (AMARE), Setaria faberi (SETFA), Echinochloa crus-galli (ECHCG), Ipomoea hederacea (IPOHE), Lolium perenne (LOLPE). After 8 days cultivation (post-emergence) under controlled conditions in a glasshouse (at 24/16° C., day/night; 14 hours light; 65% humidity), the plants are sprayed with an aqueous spray solution derived from the formulation of the technical active ingredient in acetone/water (50:50) solution containing 0.5% Tween 20 (polyoxyethylene sorbitan monolaurate, CAS RN 9005-64-5). Compounds are applied at 250 g/ha. The test plants are then grown in a glasshouse under controlled conditions in a glasshouse (at 24/16° C., day/night; 14 hours light; 65% humidity) and watered twice daily. After 13 days, the test is evaluated for the percentage damage caused to the plant. The biological activities are assessed on a five point scale (5=80-100%; 4=60-79%; 3=40-59%; 2=20-39%; 1=0-19%). A blank value in the table is indicative that the compound was not tested on that species.

Setaria faberi (SETFA) [8] = assay: B1 Post-Emergence Efficacy Test 1
Method: as §2

[9] = test system: Ipomoea hederacea (IPOHE); assay: B1 Post-Emergence Efficacy Test 1
Method: as §2

Solanum nigrum (SOLNI) [10] = assay: B1 Post-Emergence Efficacy Test 1
Method: as §2

[11] = test system: Amaranthus retoflexus (AMARE); assay: B1 Post-Emergence Efficacy Test 1
Method: as §2

SMILES | percentage damage caused to the plant, five point scale, ECHCG [1] | percentage damage caused to the plant, five point scale, LOLPE (Lolium perenne (LOLPE) [2]) | percentage damage caused to the plant, five point scale, SETFA (Setaria faberi (SETFA) [3]) | percentage damage caused to the plant, five point scale, IPOHE [4] | percentage damage caused to the plant, five point scale, SOLNI (Solanum nigrum (SOLNI) [5]) | percentage damage caused to the plant, five point scale, AMARE [6] | percentage damage caused to the plant, five point scale, LOLPE (Lolium perenne (LOLPE) [7]) | percentage damage caused to the plant, five point scale, SETFA (Setaria faberi (SETFA) [8]) | percentage damage caused to the plant, five point scale, IPOHE [9] | percentage damage caused to the plant, five point scale, SOLNI (Solanum nigrum (SOLNI) [10]) | percentage damage caused to the plant, five point scale, AMARE [11]
Cc1ccc2cc(/C=C/c3c(Cl)ccc(F)c3-c3c(O)c(C)nn(C)c3=O)ccc2n1 [Compound 2.034, 4-[3-chloro-6-fluoro-2-[(E)-2-(2-methyl-6-quinolyl)vinyl]phenyl]-5-hydroxy-2,6-dimethyl-pyridazin-3-one] | 1 (1=0-19%) | 1 (1=0-19%) | 1 (1=0-19%) | 0 | 2 (2=20-39%) | 1 (1=0-19%) | 2 (2=20-39%) | 2 (2=20-39%) | 3 (3=40-59%) | 5 (5=80-100%) | 1 (1=0-19%)
Cc1ccc2cc(/C=C/c3c(Cl)ccc(F)c3-c3c(OC(=O)C(C)C)c(C)nn(C)c3=O)ccc2n1 [Compound 4.034, [5-[3-chloro-6-fluoro-2-[(E)-2-(2-methyl-6-quinolyl)vinyl]phenyl]-1,3-dimethyl-6-oxo-pyridazin-4-yl] 2-methylpropanoate] | 0 | 0 | 0 | 0 | 1 (1=0-19%) | 0 | 1 (1=0-19%) | 2 (2=20-39%) | 3 (3=40-59%) | 5 (5=80-100%) | 1 (1=0-19%)
